# Source: patent US20240044899A1, “BIOMARKERS FOR FIMEPINOSTAT THERAPY” (Curis, Inc, priority 2021, published 2024)
# Values joined by “and” are separate entries in the source; they are usually repeats but may differ in a detail not shown here. Equal entries are not always repeated. “Also recorded” adds a separate entry of the source.
# Tests used:
# [1] = test system: DLBCL xenografts with MYC alterations; settings: cited from earlier work
# [2] = test system: R/R DLBCL/HGBL patients with MYC-altered disease; experiment: Phase 1 and phase 2 clinical studies of fimepinostat, response and survival outcomes; format: in vivo, human
# Description: Included subjects were enrolled in either the dose escalation and expansion portion of the phase 1 study evaluating fimepinsotat with or without rituximab (part 1) or the phase 2 study with fimepinostat monotherapy.
# For the phase 1/part 1 study, key inclusion criteria were ≥18 years of age with histopathologically confirmed diagnosis of DLBCL or transformed follicular lymphoma (tFL) refractory to or relapsed after at least 2 prior regimens, Eastern Cooperative Oncology Group (ECOG) performance status 0-2, measurable disease on baseline radiographic assessment and adequate hematologic and organ function. Key exclusion criteria were receipt of systemic anti-cancer therapy within 3 weeks of study entry, ongoing treatment with chronic immunosuppressive therapy, active CNS lymphoma and gastrointestinal conditions which may interfere with absorption of fimepinostat. For the phase 2 study, key inclusion criteria were ≥18 years of age with histopathologically confirmed diagnosis of DLBCL, HGBL or tFL refractory to or relapsed after 2-4 prior lines of therapy for the treatment of de novo DLBCL and ineligible for (or failed) autologous or allogeneic stem cell transplant (SCT), Eastern Cooperative Oncology Group (ECOG) performance status 0-1, measurable disease on baseline radiographic assessment, confirmed availability of viable tissue (defined as most recent available archival tumor tissue, or fresh tumor samples) for central laboratory FISH and IHC testing prior to study dosing and adequate hematologic and organ function. Key exclusion criteria were receipt of systemic anti-cancer therapy within 2 weeks of study entry or experimental therapy within 5 terminal half-lives (t1/2) or 4 weeks prior to enrollment, known primary mediastinal, ocular, epidural, testicular or breast lymphoma and current or planned glucocorticoid therapy with the exception of doses ≤10 mg/day prednisolone or equivalent.
# (§1) Patients received fimepinostat capsules (Pharmatek Laboratories Inc., San Diego, CA, USA) orally, within 30 minutes of a meal, in 21-day cycles until disease progression was documented or other discontinuation criteria were met. In the phase 2 protocol, change in dose and/or schedule intensity of fimepinostat were allowed as per protocol due to toxicity. Safety and tolerability were assessed by the incidence and severity of adverse events as determined by NCI Common Terminology Criteria for Adverse Events (CTCAE v4.03) in both protocols.
# (§2) The intention to-treat-population included al patients from both protocols who received at least one dose of fimepinostat. The evaluable population includes all patients who received at least one dose of study drug (phase 1) or one full cycle of treatment (phase 2) and completed at least one post-baseline disease assessment. Patients were re-staged according to the Revised Response Criteria for Malignant Lymphoma.^18
# MYC-altered disease was defined as one or more of the following results from central testing of tumor samples: expression of MYC protein in ≥40% of lymphoma cells by immunohistochemical staining (IHC), MYC rearrangement by fluorescence in situ hybridization (FISH) or >2 copies of MYC in by FISH. IHC staining of MYC (rabbit clone Y69) and BCL2 (mouse clone 124) for patients enrolled in the phase 1 study (note MYC FISH was not centrally performed in this study) were performed by Mosaic Laboratories, LLC (Lake Forest, CA, USA). IHC staining of MYC (rabbit clone Y69) and BCL2 (mouse clone 124) as well as FISH with MYC (8q24) and BCL6 (3q27) break apart probes and BCL2 (t(14;18)) fusion probe for patients enrolled in the phase 2 study were performed by NeoGenomics Laboratories, Inc (Fort Myers, FL, USA), with positive cutoff values for MYC rearrangement (>10%), MYC copy number gain (>20%), BCL2 rearrangement (≥0.5%) and BCL6 rearrangement (>10%) as defined per laboratory standard. […]
# [3] = Phase 1 and phase 2 clinical studies of fimepinostat, treatment-emergent adverse events (CTCAE v4.03); format: in vivo, human; settings: intention to treat population (n = 58)
# Description: as §1, §2
# All patients received fimepinostat 60 mg by mouth 5 days on/2 days off as the starting dose with the exception of 1 patient enrolled in the phase 1 protocol who received 60 mg by mouth three times weekly. Three patients enrolled in the phase 1 protocol received concurrent rituximab.
# Treatment-emergent adverse events (TEAE) occurring per patient by highest grade experienced with a frequency of ≥10% are listed in Table 5. The most common TEAE of any grade were diarrhea (72%), nausea (52%) and thrombocytopenia (38%). The most common grade 3 or 4 adverse events were […], neutropenia (15%), diarrhea (12%) and anemia (12%). Three patients experienced grade 5 TEAE: respiratory failure deemed unlikely related to treatment in 1 patient, sepsis deemed not related to treatment in 1 patient and tracheal obstruction deemed not related to treatment in 1 patient. Two non-evaluable patients discontinued treatment due to TEAE: grade 2 vomiting deemed related to treatment occurring in 1 patient and grade 4 hypercalcemia deemed unlikely related to treatment in 1 patient.
# [4] = evaluable population (n = 43), 60 mg by mouth 5 days on/2 days off
# [5] = evaluable population (n = 43), estimated
# [6] = individual patients achieving partial or complete response (Subject ID 1-9)
compound,measurement,setting,value
"COc1ccc(-c2nc(N3CCOCC3)c3sc(CN(C)c4ncc(C(=O)NO)cn4)cc3n2)cn1 [fimepinostat, Fimepinostat]",Preclinical activity compared to HDAC or PI3K inhibitor monotherapy,[1],superior preclinical activity
same,"Responding patients who remained on treatment for over 2 years without disease progression, number",[2]; 9 responding patients,4
same,Overall response rate,[2]; evaluable population (n = 43),21%
same,"Overall response, number of patients",[2]; evaluable population (n = 43),9
same,"Partial response, number of patients",[2]; evaluable population (n = 43),3
same,"Progressive disease, number of patients",[2]; evaluable population (n = 43),26
same,"Complete response, % of patients",[2]; [4],14%
same,"Complete response, number of patients",[2]; [4],6
same,Alive at 6 months,[2]; [5],54% (95% CI 37-68%)
same,Progression free at 6 months,[2]; [5],18% (95% CI 8-31%)
same,DOR (duration of response),[2]; [6],30.0 months and 24.4 months and 23.8 months and 1.0/1.0 months and 4.2 months and 4.1 months (2×) and 2.8 months and 40.5 months
same,Status at end of study,[2]; [6],Alive; also recorded: Deceased
same,TTR (time to response),[2]; [6],2.7 months and 2.8 months (3×) and 1.0/1.0 months and 1.3 months (2×) and 4.0 months and 1.2 months
same,Median duration of response,[2]; responding patients of evaluable population,Not yet reached (95% CI 1.4 months-
same,"TEAE Abdominal pain, patients n (%)",[3]; Grade 3,3 (5)
same,"TEAE Anemia, patients n (%)",[3]; Grade 3,7 (12)
same,"TEAE Arthralgia, patients n (%)",[3]; Grade 3,0 (0)
same,"TEAE Back pain, patients n (%)",[3]; Grade 3,1 (2)
same,"TEAE Constipation, patients n (%)",[3]; Grade 3,0 (0)
same,"TEAE Cough, patients n (%)",[3]; Grade 3,0 (0)
same,"TEAE Decreased appetite, patients n (%)",[3]; Grade 3,0 (0)
same,"TEAE Diarrhea, patients n (%)",[3]; Grade 3,7 (12)
same,"TEAE Dizziness, patients n (%)",[3]; Grade 3,0 (0)
same,"TEAE Dyspnea, patients n (%)",[3]; Grade 3,3 (5)
same,"TEAE Edema peripheral, patients n (%)",[3]; Grade 3,0 (0)
same,"TEAE Fatigue, patients n (%)",[3]; Grade 3,1 (2)
same,"TEAE Hypokalemia, patients n (%)",[3]; Grade 3,6 (10)
same,"TEAE Hypomagnesaemia, patients n (%)",[3]; Grade 3,0 (0)
same,"TEAE Hypophosphatemia, patients n (%)",[3]; Grade 3,4 (7)
same,"TEAE Lymphocyte count decreased, patients n (%)",[3]; Grade 3,3 (5)
same,"TEAE Nausea, patients n (%)",[3]; Grade 3,0 (0)
same,"TEAE Neutropenia, patients n (%)",[3]; Grade 3,7 (12)
same,"TEAE Pain in extremity, patients n (%)",[3]; Grade 3,1 (2)
same,"TEAE Pyrexia, patients n (%)",[3]; Grade 3,1 (2)
same,"TEAE Thrombocytopenia, patients n (%)",[3]; Grade 3,11 (19)
same,"TEAE Upper respiratory tract infection, patients n (%)",[3]; Grade 3,0 (0)
same,"TEAE Vomiting, patients n (%)",[3]; Grade 3,1 (2)
same,"TEAE Weight decreased, patients n (%)",[3]; Grade 3,1 (2)
same,"TEAE White blood cell count decreased, patients n (%)",[3]; Grade 3,3 (5)
same,"TEAE Abdominal pain, patients n (%)",[3]; Grade 4,0 (0)
same,"TEAE Anemia, patients n (%)",[3]; Grade 4,0 (0)
same,"TEAE Arthralgia, patients n (%)",[3]; Grade 4,0 (0)
same,"TEAE Back pain, patients n (%)",[3]; Grade 4,0 (0)
same,"TEAE Constipation, patients n (%)",[3]; Grade 4,0 (0)
same,"TEAE Cough, patients n (%)",[3]; Grade 4,0 (0)
same,"TEAE Decreased appetite, patients n (%)",[3]; Grade 4,0 (0)
same,"TEAE Diarrhea, patients n (%)",[3]; Grade 4,0 (0)
same,"TEAE Dizziness, patients n (%)",[3]; Grade 4,0 (0)
same,"TEAE Dyspnea, patients n (%)",[3]; Grade 4,0 (0)
same,"TEAE Edema peripheral, patients n (%)",[3]; Grade 4,0 (0)
same,"TEAE Fatigue, patients n (%)",[3]; Grade 4,0 (0)
same,"TEAE Hypokalemia, patients n (%)",[3]; Grade 4,0 (0)
same,"TEAE Hypomagnesaemia, patients n (%)",[3]; Grade 4,0 (0)
same,"TEAE Hypophosphatemia, patients n (%)",[3]; Grade 4,0 (0)
same,"TEAE Lymphocyte count decreased, patients n (%)",[3]; Grade 4,0 (0)
same,"TEAE Nausea, patients n (%)",[3]; Grade 4,0 (0)
same,"TEAE Neutropenia, patients n (%)",[3]; Grade 4,2 (3)
same,"TEAE Pain in extremity, patients n (%)",[3]; Grade 4,0 (0)
same,"TEAE Pyrexia, patients n (%)",[3]; Grade 4,0 (0)
same,"TEAE Thrombocytopenia, patients n (%)",[3]; Grade 4,3 (5)
same,"TEAE Upper respiratory tract infection, patients n (%)",[3]; Grade 4,0 (0)
same,"TEAE Vomiting, patients n (%)",[3]; Grade 4,0 (0)
